# Test results: ChEMBL document CHEMBL3507680, “University of Dundee, Gates Library screen for HepG2 cell viability”
# Experiment: Human HepG2 cell viability assay in 384 well format
# Type: toxicity, cell-based
# Design: dose 125 nL, time 70.5 hour; cytotoxicity at 70.5 h: concentration not given beside the values
# Settings: HepG2 cells, read-out: Inhibition
row,SMILES,cytotoxicity at 70.5 h
1,COC(=O)CCN1CCCC1c1ccccc1Cl (centres undefined),-6.47%
2,CN(CC(N)=O)Cc1c(Cl)ccc2cccnc12,-2.22%
3,CCOc1ncccc1Cn1cc(-c2ccc(CO)o2)nn1,-15.3%
4,CC(C)n1cc(CN2CCCN(C(=O)c3ccoc3)CC2)cn1,27.6%
5,CCNC(=O)N1CCCCC1CCO (centres undefined),12.6%
6,O=C(NC[C@H]1COCc2nc3cc(F)ccc3n21)c1cccnc1,-2.79%
7,CCNC(=O)CCC(=O)N1CCC(Oc2cc(C)ccc2C)CC1,-19.2%
8,O=C(NCc1nnc2n1CCC2)NCC1(c2cccc(F)c2)CC1,-5.65%
9,N[C@H]1CC[C@@H](n2cc(C(=O)NC3CCc4ccccc4C3)nn2)CC1 (some centres undefined),-11.5%
10,Cn1ccnc1SCc1nc(C(C)(C)NC(=O)OC(C)(C)C)no1,12%
11,Cc1cccc(S(=O)(=O)N2C[C@H]3C[C@H](C(=O)NCC4CC4)[C@@H](C2)O3)c1,-0.444%
12,CCc1ccc(C(=O)O)cc1S(=O)(=O)N(C)c1cccc(C#N)c1,-6.98%
13,CC(=O)c1ccc(N2CCCC(CO)(CCOc3ccccc3)C2)nc1 (centres undefined),-13.1%
14,Cc1nnc2n1CCN(C(=O)CN1C(=O)CCCc3ccccc31)C2,12.9%
15,CN1C(=O)CC(c2ccccc2)C12CCN(c1ncc(F)cn1)CC2 (centres undefined),-1.24%
16,Cc1cc(NC(=O)c2ccc(-n3ncc(C#N)c3N)cc2)n(C)n1,-8.66%
17,O=C(Nc1cnc2n1CCCC2)c1cccc(-n2cnnc2)c1,-16.8%
18,O=C(c1ccccc1Cl)N1CCN(CCc2ccccn2)CC1,-5.74%
19,CC(C(=O)NCCOc1ccc(F)cc1)n1cncn1 (centres undefined),-14.7%
20,CCN(CC)S(=O)(=O)c1cccc(C(=O)N(C)Cc2ccsc2)c1,14.5%
21,O=C(c1ccoc1)N1CC[C@H]2[C@H]1CCN2CC1CC1,-3.04%
22,CCN(Cc1cnn(C)c1)C[C@H]1CC[C@@H](Cc2cccc(CN)c2)O1,3.32%
23,CC(CN1CCOCC1)NC(=O)NCc1ccc(Cl)s1 (centres undefined),-7.44%

row,SMILES,cytotoxicity at 70.5 h
1,CC(C)=CCN1C[C@@H]2CN(C(=O)c3ccc(CO)cc3)C[C@]2(C(=O)O)C1,-12.2%
2,CN(C)c1nccc(N(C)C2CCOCC2)n1,-2.99%
3,CN(C)CCN(Cc1ccc(Cl)cc1)C(=O)c1ccncc1,-1.83%
4,O=C(c1ccn(-c2cccc(F)c2)n1)N1CCN(CC2CC2)CC1,-7.87%
5,O=C(COCC1CC1)N1CCCC(n2cncn2)C1 (centres undefined),-9.93%
6,CC1CCCCN1C(=O)CCc1nnc(-c2ccccc2)o1 (centres undefined),-1.68%
7,Cc1nc(CN2C(=O)CC[C@@H]3[C@H]2CCN3C2CCOC2)cs1 (some centres undefined),1.29%
8,CC(C)c1ncncc1C(=O)N1CCN(Cc2ccsc2)CC1,-10.1%
9,Clc1cccc(N2CCC(NCc3ncc[nH]3)C2)c1 (centres undefined),0.765%
10,O=C(c1nn(-c2ccccc2F)cc1O)N1CCC2(CC1)OCCO2,13.2%
11,Cc1nc(NCC2CC2)nc2c1COCC21CCN(S(=O)(=O)C2CC2)C1 (centres undefined),-15.4%
12,CNc1[nH]nc(N)c1C(=O)Nc1ccc(OC)cc1,1.52%
13,Cc1cc(N2CCC(c3ncc[nH]3)CC2)c2ccccc2n1,-7.19%
14,O=C(Cn1ccnc1)N1C[C@@H]2CC[C@H](Oc3cccc(F)c3)[C@@H]2C1,-6.97%
15,Cc1nccc(CNC(=O)NCC(C)Oc2ccccc2F)n1 (centres undefined),10.9%
16,Cc1cncc(Oc2ccc(CN)cc2)n1,-10.6%
17,CCc1nnc2n1CCN(Cc1csc(NC(C)=O)n1)C2,-3.38%
18,Cn1cc(CNc2ncnc3c2CCN(Cc2ccsc2)CC3)cn1,0.199%
19,Cc1ccccc1-n1cnc(Cl)c1C(=O)O,-8.21%
20,c1cnc(-c2nn3c(CN4CCOCC4)nnc3s2)cn1,-10.2%
21,CC(C)NC(=O)[C@@H]1CCO[C@@H]2CCN(c3ncccn3)C[C@@H]21,0.956%
22,COCCN(Cc1ccncc1)C(=O)CCSCc1ccc(F)cc1,20%
23,COc1ccccc1C1(CNC(=O)NCc2noc(C)n2)CC1,26.4%

row,SMILES,cytotoxicity at 70.5 h
1,CC(C)(C)C(=O)NCCCn1cncn1,6.35%
2,CC(C)S(=O)(=O)C(C)C(=O)NCc1ccccc1OCc1ccccc1 (centres undefined),-1.68%
3,COc1ccc(CN2CCCn3cncc3C2)cc1Cn1cncn1,-8.65%
4,CNC(=O)CN1CCO[C@H]2CN(C(=O)C3CC3)C[C@H]21,-2.66%
5,Cc1csc2c(N3CCC(NCCc4ccnn4C)CC3)ncnc12,6.94%
6,CC(c1ccc(Br)cc1)N1CCCN(C(N)=O)CC1 (centres undefined),-5.26%
7,Cc1nc(N2CCOCC2)nc2c1CCN(C(=O)C1CCCCC1)CC2,0.0722%
8,O=C(NCCc1ccccc1)NCC(O)c1cccs1 (centres undefined),-14%
9,CCn1nc(CC(C)C)cc1C(=O)NCC(F)(F)F,12.8%
10,CC(O)CN1CCC(CN(C)Cc2ccc(C#N)cc2F)CC1 (centres undefined),6.92%
11,CN(Cc1cccc(-n2cccn2)c1)c1cc(N2CCCC2)nc(N)n1,-16.8%
12,CNC(=O)CN1CCOC(c2ccccc2C(F)(F)F)C1 (centres undefined),7.85%
13,Cc1cc(CNC(=O)NCC(O)c2cccc(F)c2)no1 (centres undefined),-10.8%
14,CC1CN(C(=O)C2(c3cccc(F)c3)CCOCC2)CCO1 (centres undefined),-3.81%
15,Nc1cc2c(nn1)CCN(C(=O)c1cccc3c1OCCO3)C2,-14.7%
16,Cc1cccc(NC(=O)N2CCC3(CCC(C(=O)N(C)C)O3)CC2)c1 (centres undefined),-11.4%
17,Cc1nc(CCCNC(=O)c2cc(F)ccc2O)n[nH]1,-9.81%
18,CCN1CCN(C(=O)NCc2cccc(-c3cnn(C)c3)c2)CC1,-2.59%
19,Cc1noc(C)c1CN1C[C@@H]2C[C@H](C(=O)NCC3CC3)N(C)[C@@H]2C1,-11.9%
20,CNC(=O)Cc1ccc(-n2ccnc2-c2ccc(C(=O)O)s2)cc1,-5.64%
21,COCCC(=O)N(CCC#N)c1ccc2c(c1)OCCO2,-0.557%
22,CN(C)CC(=O)N1CCOC2(CCCN(c3ncccc3F)C2)C1 (centres undefined),4.23%
23,Cc1cc(N2CCCC(O)(CN(C)C)CC2)nc(-c2ccccc2)n1 (centres undefined),-4.65%

row,SMILES,cytotoxicity at 70.5 h
1,COCCn1cnc2ccc(NC(=O)c3c(C)noc3C)cc2c1=O,30.3%
2,Cc1cc(C2CCCN2c2ncc(C(N)=O)cc2Cl)no1 (centres undefined),-0.208%
3,CC(C)c1nc(CN2CCCC2CN2CCCC2)cs1 (centres undefined),-7.95%
4,CC(C)NC(=O)N1CC[C@@H]2[C@@H]1CC(=O)N2Cc1cccnc1,-13.6%
5,COCCOCC(=O)Nc1ccc(C)cc1Cl,-0.473%
6,CC1=C(C#N)C(=O)NC(=O)/C1=C\c1c(C)nn(-c2ccc(C)cc2)c1O,-2.65%
7,CN(C)S(=O)(=O)N1CCC(c2cccc(Cc3ccccc3Cl)n2)CC1,18.2%
8,CN(C)C(=O)N1CCC2(CC1)C(c1cnn(C)c1)CC(=O)N2C (centres undefined),-7.08%
9,O=c1[nH]c2c(c(=O)n1C1CCCCC1)CCC2NCCc1ccccc1 (centres undefined),-17.4%
10,CC(=O)Cn1ncc(N2CCOCC2)cc1=O,-0.483%
11,COc1cccc(CN(C)CC2=Nc3ccccc3S(=O)(=O)N2)c1,-8.56%
12,CC(C)=CCCC(C)CN1CCC(n2cc(CO)nn2)CC1 (centres undefined),-4.45%
13,Cc1ccnc(C2CCCN2C(=O)c2cnccn2)n1 (centres undefined),-9.28%
14,Cc1cnn(CCCNC(=O)C2CCCCN2Cc2ccncc2)c1 (centres undefined),-4.19%
15,Cc1oc(C)c(C(=O)NS(=O)(=O)c2ccc3c(c2)OCCO3)c1Br,-17.9%
16,Cc1cnn(CC2CCCCN2C(=O)c2ccc(N(C)C)nc2)c1 (centres undefined),0.883%
17,COc1ccc(OC)c(NC(=O)NCC(O)c2ccc(F)c(F)c2)c1 (centres undefined),9.62%
18,CC(C)c1cc(N2CCC3(CC2)CN(C)CCN3C)ncn1,-4.93%
19,Cc1ncc(CN(C)C2CCCN(CCc3ccccc3)C2)n1C (centres undefined),-9.12%
20,CN(C)c1nc2c(c(N(C)Cc3n[nH]c4c3CCCCC4)n1)CCNC2,-9.48%
21,CCn1ccnc1CNCC1CCCN1c1cccnn1 (centres undefined),5.62%
22,Cc1nnc(NC(=O)N2CCCN(C3CCCC3)CC2)s1,-2.92%
23,CCN(CC)C(=O)CC[C@@H]1CNC(=O)[C@@H]2C[C@H](NC(=O)C3CC3)CN12,-2.96%

row,SMILES,cytotoxicity at 70.5 h
1,CC(NC(=O)NCCOc1ccc(Cl)cc1)c1nncn1C (centres undefined),-12.4%
2,CC(C)c1ocnc1C(=O)NC(c1nnc2n1CCNCC2)C(C)C (centres undefined),-16.6%
3,CCCOc1ccc(CNCCn2cccn2)cc1,-12.1%
4,Cc1nc(S(=O)(=O)NCCC(=O)NCc2ccsc2)cn1C,-6.68%
5,CNC(=O)[C@@H]1CCO[C@@H]2CCN(Cc3ccsc3)C[C@H]21,-14%
6,CCCn1cc(-c2cc(-c3cnc(OC)nc3)c(C#N)c(N)n2)c(C)n1,-7.45%
7,CC(Cn1cccn1)C(=O)N1CCC(Nc2cccnn2)CC1 (centres undefined),-10%
8,Cc1cnn(C2CN(Cc3noc(C)n3)C2)c1,-6.5%
9,Cc1ccc(C(=O)NS(=O)(=O)Cc2ccon2)c(C)c1,-4.2%
10,COCC(=O)N1CCC2(CC1)CC(OC)c1ccc(F)cc12 (centres undefined),-0.706%
11,O=C(Nc1ccc2c(c1)OCCO2)N1CCCC1c1ccco1 (centres undefined),-10.5%
12,CNS(=O)(=O)c1cccc(CNCc2ccsc2)c1,-1.74%
13,CCOc1ccc(CNCc2cccnc2N(C)C)cc1,-5.74%
14,O=C(N[C@H]1CN2CCC1CC2)c1cc(Cn2cnc3ccccc32)[nH]n1,-5.02%
15,Cc1nc(NCC(O)CN2CCCCCC2)c2c(C)noc2n1 (centres undefined),-5.74%
16,COc1cccc(CNCCc2cc(F)cc3c2OCOC3)c1OC,5.71%
17,CCOC1CCN(CCc2nc(-c3cccc(Cl)c3)no2)CC1,16.1%
18,O=C(O)C1(Oc2cccc(F)c2)CCN(C2CCOCC2)CC1,-6.65%
19,Cc1nsc(N2CCCN(C(=O)CCc3ccsc3)CC2)n1,-2%
20,Cc1nccn1C1CCCN(C(=O)c2cccc(-n3cccc3)c2)C1 (centres undefined),11.6%
21,Cn1nc(CNS(=O)(=O)Cc2ccccc2F)c2c1CCCC2,-5.77%
22,c1ccc(CCN2CCN(c3ccc4nncn4n3)CC2)cc1,-1.86%
